Here are results for 7 molecules from patent publication US20210323995A1, “ISOLITHOCHOLIC ACID OR ISOALLOLITHOCHOLIC ACID AND DEUTERATED DERIVATIVES THEREOF FOR PREVENTING AND TREATING CLOSTRIDIUM DIFFICILE-ASSOCIATED DISEASES” (PHENEX PHARMACEUTICALS AG, priority 2018, published 2021).

Molecules are shown by their SMILES. In brackets after ≈: the same amount, converted by molar mass. Where two headings read alike, the source gives them in different places.

The test system of data set [1] is C. diff. spore germination. To be noted: reported in WO2010/062369, Table 3, cited from earlier work.
For data set [2], the system named is Clostridium difficile (Clostridioides difficile), Mouse Strain VPI 10463 (ATCC 43255). In words: MIC on Clostridium difficile mouse strain VPI 10463. It counts as cell-based. To be noted: ATCC43255, 48 hours, presence/absence of growth, tested 0.015-250 μM. On the procedure: Determination of Minimal Inhibitory Concentrations (MICs) of Bile Acid Derivatives on Clostridium difficile (Clostridioides difficile), Mouse Strain VPI 10463 (ATCC 43255)
Concentrations (0.015-250 μM) of test compounds are prepared by serial two-fold dilutions in pre-reduced brain heart infusion (BHI) broth. To each well containing test article, approximately 5×10^5 CFU of bacteria are added and incubated for 48 hours in an anaerobic chamber at 37° C. Following incubation, the MIC of each test article is determined by presence/absence of bacterial growth in each well.

Data set [3] concerns C. diff. strain VPI 10463 (ATCC-43255) infection. In words: Recurrence model mouse of C. diff. infection. It counts as in vivo, C57BL/6 female mice. To be noted: 30 mg/kg; comparison Example 3 against Example 1 (FIG. 3).
Procedure: The efficacy of compounds in suppressing recurrent C. diff. infection was assessed in C57BL/6 female mice. Mice were made vulnerable to C. diff. infection by administration of a cocktail of antibiotics (1% glucose, kanamycin (0.5 mg/mL), gentamicin (44 μg/mL), colistin (1062.5 U/mL), metronidazole (269 μg/mL), ciprofloxacin (156 μg/mL), ampicillin (100 μg/mL) and vancomycin (56 μg/mL)) in drinking water for a period of 9 days. 3 days prior to C. diff. infection, mice received a single dose of clindamycin (10 mg/kg) in a volume of 0.5 mL by oral gavage. After this antibiotic pre-treatment, mice received a challenge of approximately 4.5 log 10 viable spores of strain VPI 10463 (ATCC-43255) administered by oral gavage (day 0). After that mice received 50 mg/kg vancomycin from day 0 until day 4. Test articles (bile acid) and placebo were administered via oral gavage bid from day 5 through day 11. Efficacy of test articles was assessed by enumeration of survival of test animals over 15 days following C. diff, challenge and by comparison of mortality, disease severity scores and assessment of body weight against placebo treatment.
For data set [4], the system named is Clostridium difficile (Clostridioides difficile), Human Strain R20291, Ribotype RT027. In words: MIC on Clostridium difficile human strain R20291, ribotype RT027. To be noted: 16 h incubation, OD600. It counts as cell-based. On the procedure: Determination of Minimal Inhibitory Concentrations (MICs) of Bile Acid Derivatives on Clostridium difficile (Clostridioides difficile), Human Strain R20291, Ribotype RT027, Reference DSMZ (DSM-27147)
All bacterial culturing steps and MIC experiments were performed under anoxic conditions (95% N2, 5% H2) and 37° C. in an incubator model 2002 that was placed in a Type B vinyl anaerobic chamber, both from Coy Laboratories Products. The strains were maintained as frozen stock cultures in Brain-Heart Infusion broth supplemented with […] and 1% (w/v) L-cysteine (BHIS) containing 40% (v/v) glycerine (Carl Roth GmbH, Cat. #3783.1) at −80° C. Brain-heart infusion broth (Sigma Aldrich, Cat. #53286) with the addition of with 5 g/L yeast extract (Carl Roth GmbH, Cat. #2363.5) was prepared according to the manufacturer's instructions. After heat sterilization, 1 g L-cysteine (Sigma Aldrich, Cat. #C7352) was added that was dissolved in 10 mL of distilled water (H2Odd) and filter sterilized. Medium was placed over night into the anaerobic chamber for degassing. For the MIC-assay cryo-preserved strains were streaked out on BBL™ Columbia CNA Agar with 5% Sheep Blood (BD™, Cat. #221352) and grown for 2-3 d. These plates were kept at rt in the anaerobic chamber for up to two weeks for starting fresh liquid cultures. […]

Data set [5] can be described thus: ALT plasma concentration of mice after 5 days administration. Type of data set: in vivo. To be noted: 500 mg/kg for 5 days, mice (FIG. 1a, 1b); result in words.

As for `CC(=O)O[C@@H]1CC[C@@]2(C)[C@H](CC[C@@H]3[C@@H]2CC[C@]2(C)[C@@H]([C@H](C)CCC(=O)O)CC[C@@H]32)C1` [5β-cholanic acid 3α-ol acetate], the entries for the “effect on C. diff. spore germination (inhibition of germination)” value in data set [1] and in data set [1] (listed as 3-acetyl-LCA) were “no effect” and “not present”, respectively. As a reminder, the MIC is the lowest concentration that inhibits growth of the organism. A high value points to a less susceptible organism. In turn, `[2H]C1([2H])C[C@@]2(C)[C@H](CC[C@@H]3[C@@H]2CC[C@]2(C)[C@@H]([C@H](C)CCC(=O)O)CC[C@@H]32)C([2H])([2H])[C@H]1O` [Example 2, 2,2,4,4-d4-Isolithocholic Acid] registered an MIC in data set [2] of 7.8 to 15.6 µM (≈ 2.97 to 5.94 µg/mL). As to `[2H]C1([2H])C[C@@]2(C)[C@H](CC[C@@H]3[C@@H]2CC[C@]2(C)[C@@H]([C@H](C)CCC(=O)O)CC[C@@H]32)C([2H])([2H])C1([2H])O` (stereo partly shown) [Example 3, 2,2,3,4,4-d5-Isolithocholic Acid], the MIC in data set [2] was 7.8 to 15.6 µM (≈ 2.98 to 5.95 µg/mL). In addition, the “survival of the animals” value in data set [3] was found to be 60%. Turning to `[2H][C@]1(O)CC[C@@]2(C)[C@H](CC[C@@H]3[C@@H]2CC[C@]2(C)[C@@H]([C@H](C)CCC(=O)O)CC[C@@H]32)C1` [Example 4, 3-d1-Isolithocholic Acid], the MIC in data set [2] came out at 15.6 µM (≈ 5.89 µg/mL).

Turning to `C[C@H](CCC(=O)O)[C@H]1CC[C@H]2[C@@H]3CC[C@H]4C[C@@H](O)CC[C@]4(C)[C@H]3CC[C@]12C` [Example 5, 3β-Hydroxy-5α-cholan-24-oic Acid], the MIC in data set [2] is 3.9 µM (≈ 1.47 µg/mL); in data set [4] it was 8 µM (≈ 3.01 µg/mL). For `C[C@H](CCC(=O)O)[C@H]1CC[C@H]2[C@@H]3CC[C@@H]4C[C@H](O)CC[C@]4(C)[C@H]3CC[C@]12C` [LCA, lithocholic acid], in data set [5], the “ALT-elevation (ALT plasma concentration)” value was “confirm this described liability of ALT-elevation”. Molecule `C[C@H](CCC(=O)O)[C@H]1CC[C@H]2[C@@H]3CC[C@@H]4C[C@@H](O)CC[C@]4(C)[C@H]3C[C@H](O)[C@]12C` [iso-DCA, reference compound] showed an MIC in data set [2] greater than 250 µM.
